According to patent US3968100A, “Guanidio derivatives of kasugamycin and their production” (Zaidan Hojin Biseibutsu Kagaku Kenkyu Kai, priority 1972, dated 1976):
In brackets after ≈: the same amount, converted by molar mass. Where two headings read alike, the source gives them in different places.

Experiments:
Shigella sonnei 191-66 = assay: antibacterial spectrum by the broth dilution method (MIC); assay type: cell-based; conditions: 19166; Shigella sonnei 191-66, broth dilution; read-out: Minimum inhibitory concentration
Experimental: (§1) The antibacterial spectrum of the new guanidino derivatives of kasugamycin was determined by the broth dilution method and shown in Table 2 below.

[1] = test system: Staphylococcus aureus 6538P; assay: as above; assay type: cell-based; conditions: read-out: Minimum inhibitory concentration
Experimental: as §1

Escherichia coli NIHJ = assay: as above; assay type: cell-based; conditions: read-out: Minimum inhibitory concentration
Experimental: as §1

Proteus vulgaris OX 19 = assay: as above; assay type: cell-based; conditions: OX19; Proteus vulgaris OX 19, broth dilution; read-out: Minimum inhibitory concentration
Experimental: as §1

[2] = test system: Bacillus subtilis ATCC 6633; assay: as above; assay type: cell-based; conditions: ATCC6633; Bacillus subtilis ATCC 6633, broth dilution; read-out: Minimum inhibitory concentration
Experimental: as §1

[3] = test system: Klebsiella pneumoniae ATCC 10031; assay: as above; assay type: cell-based; conditions: ATCC10031; Klebsiella pneumoniae ATCC 10031, broth dilution; read-out: Minimum inhibitory concentration
Experimental: as §1

Salmonella paratyphi A = assay: as above; assay type: cell-based; conditions: Salmonella enterica, read-out: Minimum inhibitory concentration
Experimental: as §1

[4] = test system: Pseudomonas fluorescence NIHJB-24; assay: as above; assay type: cell-based
Experimental: as §1

Escherichia coli K-12 = assay: as above; assay type: cell-based; conditions: K12; Escherichia coli K-12, broth dilution; read-out: Minimum inhibitory concentration
Experimental: as §1

mice = assay: acute toxicity to mice injected intravenously; assay type: in vivo; conditions: 350 mg/kg intravenously, five mice
Text: (§2) The process of Example 3 was repeated using propylenediamine and butylenediamine, respectively in stead of the ethylenediamine. There were obtained 1D-3-O-{2-amino-4-[(2-aminopropyl)-guanidinol]-2,3,4,6-tetradeoxy-α- D-arabino-hexopyranosyl}-chiro-inositol and 1D-3-O-{2-amino-4-[(2-aminobutyl)-guanidinol]-2,3,4,6-tetradeoxy-α-D-arabino-hexopyranosyl]-chiro-inositol in yields of 31.2% and24.6%, respectively.

[5] = test system: Pseudomonas aeruginosa No. 12; assay: protection test against infection in mice of Pseudomonas aeruginosa; assay type: in vivo, mice (dd strain) infected with Pseudomonas aeruginosa No. 12; conditions: for ED50: Pseudomonas aeruginosa, NO.12, ip, read-out: curative dose (CD50)
Experimental: The inoculum size of Pesudomonas aeruginosa No.12, which was 10 times of LD50 (3.1 × 10^8 cells/ml, 0.25 ml/mouse), was inoculated intraperitoneally to dd strain of mice (19-21 g body weight), and the treatment with the aforesaid kasugamycin-KG-8 was intraperitoneally injected at 0 and 6 hours after the infection.

[6] = acute toxicity to mice injected intravenously; assay type: in vivo; conditions: mouse, in vivo, iv
Text: as §2

chicks = assay: growth promoting effect on chicks; assay type: in vivo, chicks of broiler type (White Rock × White Cornish); parameters: Weight gain: unit not given here; conditions: 10 g/ton in ration; for Index of weight gain: control = 100
Experimental: Growth promoting effect of kasugamycin-KG-8 on chicks is tested below. Kasugamycin-KG-8 was mixed uniformly with ration and administered to chicks to examine its effect on growth promotion and improvement of feed utilization. Eighty chicks of broiler type (White Rock × White Cornish) were assigned to two lots of 40 chicks each and for 8 weeks. Lot 1 (Control): Supplied only with basal ration. Lot 2: Supplied with basal ration + kasugamycin-KG-8 10 g/ton. As the basal ration was used one of standard composition. Chick rearing was managed according to the usual method. Ration and drinking water were supplied ad libitum. Tabel 5 indicates beneficial effect of kasugamycin-KG-8 on chick growth promotion.

solubility = assay type: physicochemical
swine = assay: growth promoting effect on swine; assay type: in vivo; conditions: pigs, 10 g/ton in ration, 7 weeks
Text: Growth promoting effect of kasugamycin-KG-8 on swine is described below. Kasugamycin-KG-8 was mixed uniformly with ration and administered to pigs to examine its effect on growth promotion and improvement of feed utilization. Fourty-eight young pigs of 1 month old were assigned to two lots of […] pigs each and fed for 7 weeks. Lot 1 (Control): Supplied only with basal ration. Lot 2: Supplied with basal ration + kasugamycin-KG-8 10 g/ton. As the basal ration, one of standard composition was used. Swine raising was managed according to usual method. Each lot of […] pigs were fed in a concrete pen. Ration and drinking water were supplied ad libitum. The index of weight gain indicates beneficial effect of kasugamycin-KG-8 on swing growth promotion.

[7] = test system: Pseudomonas fluorescens NIHJ B-254; assay: activity of eluted fractions against test organism; assay type: cell-based; conditions: purified white powder
Experimental: The isourea derivative dihydrochloride of kasugamycin (500 mg) prepared in Example 2 was dissolved into 10% ethylenediamine in methanol (w/w). The solution was allowed to stand at room temperature for 24 hours, diluted with 80 ml of isopropanol and concentrated to one-half volume under reduced pressure. The solid deposited by concentration was filtered, washed with ethyl ether and dried to give 457 mg of a crude guanidino derivative of kasugamycin as a white powder. The crude powder was dissolved in 4.5 ml of water and adsorbed on a column containing 12 ml of a cation-exchange resin Amberlite IRC-50(NH4 -type). The column was washed with water and followed with 0.3N NH4 OH, and developed with 0.3N H2 SO4. The activities of each eluted fraction were determined using Pseudomonas fluorescens NIHJ B-254 as a test organism. […] And the product formed crystals as the salt of p-hydroxyazobenzene-p'-sulfonic acid.

[8] = NIHJB24, Pseudomonas fluorescence NIHJB-24, broth dilution, read-out: Minimum inhibitory concentration

CNCCN(C)C(=N)N[C@H]1C[C@H](N)[C@@H](O[C@H]2[C@H](O)[C@@H](O)[C@@H](O)[C@H](O)[C@@H]2O)O[C@@H]1C [Compound 3]
MIC (Shigella sonnei 191-66): 100 µg/mL (≈ 237 µM)
MIC [1]: 50 µg/mL (≈ 119 µM)
MIC (Escherichia coli NIHJ): 100 µg/mL (≈ 237 µM)
MIC (Proteus vulgaris OX 19): 50 µg/mL (≈ 119 µM)
MIC [2]: 25 µg/mL (≈ 59.3 µM)
MIC [3]: 100 µg/mL (≈ 237 µM)
MIC (Salmonella paratyphi A): 50 µg/mL (≈ 119 µM)
MIC [4, 8]: 50 µg/mL (≈ 119 µM)
MIC (Escherichia coli K-12): 100 µg/mL (≈ 237 µM)

C[C@H]1O[C@H](O[C@H]2[C@H](O)[C@@H](O)[C@@H](O)[C@H](O)[C@@H]2O)[C@@H](N)C[C@@H]1NC(=N)NCCCCN [Compound 4]
MIC (Shigella sonnei 191-66): 6.25 µg/mL (≈ 14.8 µM)
MIC [1]: 0.2 µg/mL (≈ 0.475 µM)
MIC (Escherichia coli NIHJ): 12.5 µg/mL (≈ 29.7 µM)
MIC (Proteus vulgaris OX 19): 1.56 µg/mL (≈ 3.7 µM)
MIC [2]: 0.78 µg/mL (≈ 1.85 µM)
MIC [3]: 1.56 µg/mL (≈ 3.7 µM)
MIC (Salmonella paratyphi A): 0.78 µg/mL (≈ 1.85 µM)
MIC [4, 8]: 3.13 µg/mL (≈ 7.43 µM)
MIC (Escherichia coli K-12): 1.56 µg/mL (≈ 3.7 µM)

C[C@H]1O[C@H](O[C@H]2[C@H](O)[C@@H](O)[C@@H](O)[C@H](O)[C@@H]2O)[C@@H](N)C[C@@H]1NC(=N)NCCS(=O)(=O)O [Compound 8]
MIC (Shigella sonnei 191-66): > 100 µg/mL
MIC [1]: 12.5 µg/mL (≈ 27.3 µM)
MIC (Escherichia coli NIHJ): > 100 µg/mL
MIC (Proteus vulgaris OX 19): > 100 µg/mL
MIC [2]: 100 µg/mL (≈ 218 µM)
MIC [3]: > 100 µg/mL
MIC (Salmonella paratyphi A): 50 µg/mL (≈ 109 µM)
MIC [4, 8]: 50 µg/mL (≈ 109 µM)
MIC (Escherichia coli K-12): > 100 µg/mL

CC(N)CNC(=N)NC1CC(N)C(OC2C(O)C(O)C(O)C(O)C2O)OC1C [Example 4, 1D-3-O-{2-amino-4-[(2-aminopropyl)-guanidinol]-2,3,4,6-tetradeoxy-α-D-arabino-hexopyranosyl}-chiro-inositol]
deaths after intravenous injection (mice): none of them was dead

C[C@H]1O[C@H](O[C@H]2[C@H](O)[C@@H](O)[C@@H](O)[C@H](O)[C@@H]2O)[C@@H](N)C[C@@H]1NC(=N)NCCCCN [Example 5, 1D-3-O-{2-amino-4-[(2-aminobutyl)-guanidinol]-2,3,4,6-tetradeoxy-α-D-arabino-hexopyranosyl]-chiro-inositol]
deaths after intravenous injection (mice): one of them was dead

C[C@H]1O[C@H](O[C@H]2[C@H](O)[C@@H](O)[C@@H](O)[C@H](O)[C@@H]2O)[C@@H](N)C[C@@H]1NC(=N)C(=O)O [Kasugamycin]
ED50 [5]: 35.5 mg/kg
MIC (Shigella sonnei 191-66): > 100 µg/mL
MIC [1]: 50 µg/mL (≈ 132 µM)
MIC (Escherichia coli NIHJ): 100 µg/mL (≈ 264 µM)
MIC (Proteus vulgaris OX 19): 100 µg/mL (≈ 264 µM)
MIC [2]: > 100 µg/mL
MIC [3]: 50 µg/mL (≈ 132 µM)
MIC (Salmonella paratyphi A): 50 µg/mL (≈ 132 µM)
MIC [4, 8]: 3.13 µg/mL (≈ 8.25 µM)
MIC (Escherichia coli K-12): 100 µg/mL (≈ 264 µM)

C[C@H]1O[C@H](O[C@H]2[C@H](O)[C@@H](O)[C@@H](O)[C@H](O)[C@@H]2O)[C@@H](N)C[C@@H]1NC(=N)NCCCN [R1 =--(CH2)3 NH2, R2 =H]
MIC (Escherichia coli NIHJ): 0.39 µg/mL (≈ 0.957 µM)
MIC [3]: 0.2 µg/mL (≈ 0.491 µM)

C[C@H]1O[C@H](O[C@H]2[C@H](O)[C@@H](O)[C@@H](O)[C@H](O)[C@@H]2O)[C@@H](N)C[C@@H]1NC(=N)NCCN [kasugamycin-KG-8, 1D-3-O-{2-amino-4-[(2-aminoethyl)-guanidino]-2,3,4,6-tetradeoxy-α-D-arabino-hexopyranosyl}-chiro-inositol]
LD50 [6]: 380 mg/kg
Weight gain (chicks; grower period for 4 weeks, control 871.8): 957.8
Index of weight gain (chicks; grower period for 4 weeks): 109.9
Feed conversion (chicks; grower period, control 3.65): 3.56
Weight gain (chicks; starter period of 4 weeks, control 458.4): 496.2
Index of weight gain (chicks; starter period of 4 weeks): 108.2
Feed conversion (chicks; starter period, control 2.15): 2.15
Weight gain (chicks; total period through 8 weeks, control 1330.2): 1454.0
Index of weight gain (chicks; total period through 8 weeks): 109.3
Feed conversion (chicks; total period, control 3.12): 3.07
solubility (solubility; other organic solvents): scarcely soluble or insoluble in other organic solvents
solubility (solubility; water, dimethylformamide and low alcohols): soluble in water, dimethylformamide and low alcohols
Number survived/Number infected ([5]; 0.031 mg/mouse at one time, day 0 after infection): 0/4
Number survived/Number infected ([5]; 0.031 mg/mouse at one time, day 1 after infection): 4/4
Number survived/Number infected ([5]; 0.031 mg/mouse at one time, day 7 after infection): 4/4
Number survived/Number infected ([5]; 0.063 mg/mouse at one time, day 0 after infection): 0/4
Number survived/Number infected ([5]; 0.063 mg/mouse at one time, day 1 after infection): 1/4
Number survived/Number infected ([5]; 0.063 mg/mouse at one time, day 2 after infection): 2/4
Number survived/Number infected ([5]; 0.063 mg/mouse at one time, day 7 after infection): 2/4
Number survived/Number infected ([5]; 0.125 mg/mouse at one time, day 0 after infection): 0/4
Number survived/Number infected ([5]; 0.125 mg/mouse at one time, day 3 after infection): 1/4
Number survived/Number infected ([5]; 0.125 mg/mouse at one time, day 7 after infection): 1/4
Number survived/Number infected ([5]; 0.25 mg/mouse at one time, day 0 after infection): 0/4
Number survived/Number infected ([5]; 0.25 mg/mouse at one time, day 7 after infection): 0/4
Number survived/Number infected ([5]; 0.5 mg/mouse at one time, day 0 after infection): 0/4
Number survived/Number infected ([5]; 0.5 mg/mouse at one time, day 7 after infection): 0/4
Number survived/Number infected ([5]; 1.0 mg/mouse at one time, day 0 after infection): 0/4
Number survived/Number infected ([5]; 1.0 mg/mouse at one time, day 7 after infection): 0/4
Number survived/Number infected ([5]; 2.0 mg/mouse at one time, day 0 after infection): 0/4
Number survived/Number infected ([5]; 2.0 mg/mouse at one time, day 7 after infection): 0/4
ED50 ([5]; mice, intraperitoneal at 0 and 6 hours after infection): 3.13 mg/kg
MIC (Shigella sonnei 191-66): 1.56 µg/mL (≈ 3.97 µM)
MIC [1]: 0.78 µg/mL (≈ 1.98 µM)
MIC (Escherichia coli NIHJ): 0.78 µg/mL (≈ 1.98 µM)
MIC (Proteus vulgaris OX 19): 0.78 µg/mL (≈ 1.98 µM)
MIC [2]: 0.39 µg/mL (≈ 0.991 µM)
MIC [3]: 0.1 µg/mL (≈ 0.254 µM)
MIC (Salmonella paratyphi A): 0.2 µg/mL (≈ 0.508 µM)
MIC ([4]; Pseudomonas, NIHJB24, read-out: Minimum inhibitory concentration): 1.56 µg/mL (≈ 3.97 µM)
MIC (Escherichia coli K-12): 0.39 µg/mL (≈ 0.991 µM)
Feed conversion (swine; control 3.05): 2.94
Weight gain (swine; control 8.20): 9.09 kg
Index of weight gain (swine; control = 100): 110.9
activity relative to kasugamycin [7]: three times active than kasugamycin
